Measurements from PMC9737972, “Dual LSD1 and HDAC6 Inhibition Induces Doxorubicin Sensitivity in Acute Myeloid Leukemia Cells” (Cancers, 2022).

Assays:
[1] = tested on: LSD1 and HDAC substrates in THP-1 cells; test: Western blot of methylation and acetylation levels of LSD1 and HDAC substrates; assay type: cell-based; details: 4 μM
normal RPE-1 cells = test: Cell viability of normal RPE-1 cells (CTG); assay type: cell-based; details: 120 h
THP-1 cells [2] = test: Combination treatment with antileukemic drugs, THP-1 cell viability; assay type: cell-based; details: compound 5 μM 72 h, then compound + etoposide 0.2 μM 48 h
DU-145 = test: Wound healing assay, DU-145; assay type: cell-based; details: 4 μM, 72 h, 1% FBS
Procedure: (§1) Figure S20. Wound healing assay with iDual and ricolinostat. (A) MDA-MB-231 and (B) DU-145 […]
(§2) and ricolinostat for 72 h cells grown in relative medium with (1%) FBS conditions. Wound healing is photographed with Nikon Eclipse TS 100 microscope. Wound/healed area is quantified using Image […]

THP-1 cells [3] = test: Annexin V/7-AAD staining (flow cytometry); assay type: cell-based; details: sublethal concentration (5 μM)
Procedure: Treated cells were centrifuged at 300× g for 5 min, and the pellet was resuspended with 1% FBS in PBS (5 × 10^5 cells/mL). Annexin V dye (Merck Millipore, Burlington, MA, USA, MCH100105) was mixed with the cell suspension in a 1:1 ratio and the mixture incubated at RT for 20 min.

MDA-MB-231 = test: Wound healing assay, MDA-MB-231; assay type: cell-based; details: 4 μM, 72 h, 1% FBS
Procedure: as §1, §2

THP-1 cells [4] = test: Caspase 3/7 and 7-AAD staining (flow cytometry); details: sublethal concentration (5 μM)
N-ter-GST-HDAC-6 = biological target: T1, N-ter-GST-HDAC-6 (Homo sapiens, UniProt Q9UBN7); test: HDAC-Glo I/II enzyme assay, HDAC6; assay type: biochemical
T1 construct: GST (N); purchased BPS Bioscience 50006
T1 sequence (Q9UBN7 1-1215): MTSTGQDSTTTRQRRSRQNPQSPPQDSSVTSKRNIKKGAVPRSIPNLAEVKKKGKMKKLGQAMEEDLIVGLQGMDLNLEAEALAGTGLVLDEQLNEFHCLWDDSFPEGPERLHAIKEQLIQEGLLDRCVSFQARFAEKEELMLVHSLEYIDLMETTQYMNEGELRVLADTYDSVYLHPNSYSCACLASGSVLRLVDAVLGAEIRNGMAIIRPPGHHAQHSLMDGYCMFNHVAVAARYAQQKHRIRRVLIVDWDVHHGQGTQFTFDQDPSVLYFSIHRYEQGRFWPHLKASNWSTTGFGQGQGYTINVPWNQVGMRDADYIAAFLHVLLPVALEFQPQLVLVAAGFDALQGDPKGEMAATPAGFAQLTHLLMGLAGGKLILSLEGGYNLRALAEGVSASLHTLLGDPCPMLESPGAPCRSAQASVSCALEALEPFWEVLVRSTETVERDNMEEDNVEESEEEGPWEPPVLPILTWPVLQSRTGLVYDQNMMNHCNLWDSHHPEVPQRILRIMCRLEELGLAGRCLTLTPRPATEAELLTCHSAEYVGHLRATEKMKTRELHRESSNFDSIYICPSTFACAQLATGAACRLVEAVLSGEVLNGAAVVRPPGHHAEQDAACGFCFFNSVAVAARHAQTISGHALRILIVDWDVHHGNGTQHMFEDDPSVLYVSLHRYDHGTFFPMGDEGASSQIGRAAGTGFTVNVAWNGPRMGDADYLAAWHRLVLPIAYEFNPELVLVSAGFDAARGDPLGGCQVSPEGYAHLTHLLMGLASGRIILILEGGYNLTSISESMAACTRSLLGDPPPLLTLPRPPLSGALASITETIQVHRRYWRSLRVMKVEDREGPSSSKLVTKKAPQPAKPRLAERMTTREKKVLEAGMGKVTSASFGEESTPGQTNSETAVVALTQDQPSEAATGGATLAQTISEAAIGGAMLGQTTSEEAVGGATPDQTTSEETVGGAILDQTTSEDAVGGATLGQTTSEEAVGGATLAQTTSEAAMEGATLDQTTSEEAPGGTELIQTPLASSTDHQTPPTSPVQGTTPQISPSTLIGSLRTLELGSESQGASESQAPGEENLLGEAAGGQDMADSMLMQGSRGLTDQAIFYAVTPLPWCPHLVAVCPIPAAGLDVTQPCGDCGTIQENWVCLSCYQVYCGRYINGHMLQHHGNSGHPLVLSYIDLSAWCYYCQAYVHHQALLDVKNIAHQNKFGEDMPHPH

LSD1 = LSD1 (Homo sapiens, UniProt O60341); test: LSD1 MALDI-TOF enzyme assay; assay type: biochemical; parameters: made in house; details: ± standard error, three independent measurements

Structure (SMILES)	levels of the histone substrate H3K4me2 ([1]; 24 h)	nuclear histone H3 acetylation (H3K18ac and H3K27ac levels), change vs DMSO ([1]; 24 h (ricolinostat 0.75 μM or 4 μM))	toxicity on normal RPE-1 cells (normal RPE-1 cells)	cell viability after pre-treatment with compound and co-treatment with etoposide (THP-1 cells [2])	wound healing capacity DU-145 (DU-145)	apoptosis by annexin V/7-AAD staining, compound alone (THP-1 cells [3])	wound healing capacity MDA-MB-231 (MDA-MB-231)	apoptosis by caspase activity, compound alone (THP-1 cells [4])	HDAC6/HDAC1 isoform selectivity (N-ter-GST-HDAC-6) [fold]	IC50 (N-ter-GST-HDAC-6; ± standard error, three independent measurements) [nM]	IC50 (LSD1) [nM]
O=C(NO)c1ccc(CN2CCC(CN[C@@H]3C[C@H]3c3ccccc3)CC2)cc1 (relative stereo) [iDual]	increase	two-fold	no significant toxicity	decreased cell viability was not observed	slowed down	did not induce apoptosis	slowed down	did not induce apoptosis			
O=C(NO)c1ccc(CN2CCC(CNC3(c4ccccc4)CC3)CC2)cc1 [iHDAC6]									> 30	230 ± 20	> 100000
